Patent EP2918282A1, “Pharmaceutical composition for the treatment of virus diseases, such as flu” (OOO "CytoNIR", priority 2014, dated 2015)

Test system: Grippevirus A/Vladivostok/2/09 (H1N1)
Experiment: Survival of mice infected with a lethal dose of influenza virus, peroral treatment for 5 days
Assay type: in vivo, Mäuse
Conditions: for To-des-fälle / Überleben-de Mäuse / MLD, Tage (mittlere Lebensdauer innerhalb der Beobachtungsfrist) / Sterblichkeit % / MLD-Erhöhung, Tage / Schutzkennzahl, %: Tamiflu 30 mg/kg; for MLD-Erhöhung, Tage / Schutzkennzahl, %: versus Placebo
Source text: Die Wirksamkeit des Mittels wurde an einem Modell der Überlebensfähigkeit von angesteckten Versuchstieren geprüft. Die Versuchstiere wurden mit einer tödlichen Dosis des Grippevirus A/Vladivostok/2/09 (H1N1) angesteckt. Während der Forschung wurde das erfindungsgemäße Mittel 5 Tage lang peroral verabreicht.
Als Versuchstiere wurden weiße männliche Auszucht-Mäuse mit einem Körpergewicht von 16 - 18 g aus der Aufzuchtstation Rappolovo der Russischen Akademie der medizinischen Wissenschaften verwendet. Vor der Prüfung wurden die Versuchstiere einer Quarantäne in einem Vivarium im Laufe einer Woche unterzogen. Die Versuchstiere wurden unter genormten Klima-Bedingungen mit ausgewogener Fütterung gehalten. Jede Gruppe enthielt je 30 Versuchstiere.
Um eine versuchsmäßige Grippe-Infektion zu simulieren, wurde ein bestimmter Virusstamm eingesetzt. Die Versuchstiere wurden mit dem A/Vladivostok/2/09 (H1N1)-Virus in Mengen von 1 und 10 DL50 intranasal angesteckt.
Die Behandlung der angesteckten Mäuse wurde 24 Stunden nach der Ansteckung begonnen. Die Präparate wurden intragastrisch mittels einer Sonde verabreicht. Bei diesen Präparaten handelte es sich um eine Lösung in einer physiologischen Kochsalzlösung. Die Dosis des Arzneimittels wurde pro ein kg des Körpergewichts des Tieres berechnet. Die Behandlung wurde im Laufe von 5 Tagen vorgenommen. Die Wirksamkeit des Mittels wurde anhand der Überlebensraten der Tiere am 21. Tag nach der Ansteckung beurteilt.
Die erste Gruppe der Versuchstiere erhielt eine Lösung von Glutamyltryptophan und Natriumsalz der Glycyrrhizinsäure (nachfolgend GTGS); die zweite Gruppe der Tiere erhielt ein Präparat Tamiflu (Handelsnahme des Präparats Oseltamyvir) in der Dosis von 30 mg/kg; die dritte Gruppe der Tiere erhielt eine physiologische Kochsalzlösung (Placebo).

[1] = Virus-Dosis 1 (DL50), 15 animals per group, peroral day 1 to 5 after infection
[2] = Virus-Dosis 1 (DL50), peroral day 1 to 5 after infection
[3] = Virus-Dosis 10 (DL50), 15 animals per group, peroral day 1 to 5 after infection
[4] = Virus-Dosis 10 (DL50), peroral day 1 to 5 after infection
[5] = Virus-Dosis Gesamtdosis (both virus doses pooled), 30 animals, peroral day 1 to 5 after infection
[6] = Virus-Dosis Gesamtdosis (both virus doses pooled), peroral day 1 to 5 after infection
[7] = Virus-Dosis Gesamtdosis (both virus doses pooled)

**Q.** How did the To-des-fälle [1] turn out when `CCOC(=O)C1=C[C@@H](OC(CC)CC)[C@H](NC(C)=O)[C@@H](N)C1` [Tamiflu, Oseltamyvir] was run?
**A.** 6

**Q.** And the “Überleben-de Mäuse” value [1]?
**A.** 9

**Q.** And the “MLD, Tage (mittlere Lebensdauer innerhalb der Beobachtungsfrist)” value (shortened to “MLD, Tage”) [2]?
**A.** 11,7 Tage

**Q.** What about the Sterblichkeit % [2] of the same compound?
**A.** 40,0%

**Q.** What about the “MLD-Erhöhung, Tage” value [2] of the same compound?
**A.** 1,1 Tage

**Q.** What about the “Schutzkennzahl, %” value [2] of the same compound?
**A.** 25,0%

**Q.** And the To-des-fälle [3]?
**A.** 12

**Q.** And the “Überleben-de Mäuse” value [3]?
**A.** 3

**Q.** What about the “MLD, Tage” value [4] of the same compound?
**A.** 9,0 Tage

**Q.** And the Sterblichkeit % [4]?
**A.** 80,0%

**Q.** And the “MLD-Erhöhung, Tage” value [4]?
**A.** 1,9 Tage

**Q.** And the “Schutzkennzahl, %” value [4]?
**A.** 14,3%

**Q.** And the To-des-fälle [5]?
**A.** 18

**Q.** What about the “Überleben-de Mäuse” value [5] of the same compound?
**A.** 12

**Q.** What about the “MLD, Tage” value [6] of the same compound?
**A.** 10,4 Tage

**Q.** What about the Sterblichkeit % [6] of the same compound?
**A.** 60,0%

**Q.** What about the “MLD-Erhöhung, Tage” value [7] of the same compound?
**A.** 1,5 Tage

**Q.** And the “Schutzkennzahl, %” value [7]?
**A.** 18,2%

**Q.** And the Todesfälle (virus dose 10 DL50, 30 mg/kg)?
**A.** 80%
